This note sets out measurements from patent US11427541B2, “Salt forms of a complement component C5A receptor” (CHEMOCENTRYX, INC., priority 2019, dated 2022).

Counter-ions that a name gives are not always drawn.

Data set [1] can be described thus: in vivo rat PK study, aqueous liquid suspension with 0.5% w/v Hydroxypropyl Cellulose and 0.5% w/v Poloxamer F-68 (Example 8). The settings on record: oral 10 mg/kg of Compound 1, 5 mL/kg. Here is the method:
An in vivo rat PK study was conducted to compare the PK profile and bioavailability of the free base crystalline form of Compound 1 against various salt forms of Compound 1 in an aqueous liquid suspension formulation, which contained 0.5% w/v Hydroxypropyl Cellulose (Klucel GF grade) and 0.5% w/v Poloxamer F-68 (BASF Kolliphor P188). Each animal was orally administrated 10 mg/kg of Compound 1 at 5 mL/kg dosing volume (a dosing concentration of 2 mg/mL).

The nature of data set [2]: in vivo rat PK study, aqueous liquid suspension with 1% HPMC (Example 9). The settings on record: oral 10 mg/kg of Compound 1, 5 mL/kg, suspension in 1% HPMC. Here is the method:
An in vivo rat PK study was conducted to compare the PK profile and bioavailability of the free base crystalline form of Compound 1 against various salt forms of Compound 1 in an aqueous liquid suspension formulation, which contained 1% HPMC. Each animal was orally administrated 10 mg/kg of Compound 1 at 5 mL/kg dosing volume (a dosing concentration of 2 mg/mL).

The nature of data set [3]: hygroscopicity and physical stability by dynamic vapor sorption (DVS). The settings on record: for DVS weight change from 5% to 95% relative humidity (RH): 5% to 95% RH; for DVS weight change from about 0% RH to about 75% relative humidity: about 0% to about 75% RH; for change in XRPD before and after the DVS measurement: data not shown; for DVS weight change from about 0% RH to about 55% relative humidity: about 0% to about 55% RH. The data set is classed as physicochemical. Here is the method:
To evaluate the hygroscopicity and physical stability of the collected crystals under different humidity, dynamic vapor sorption (DVS) data was collected at 25° C. after the sample was pre-equilibrated at 0% RH to remove unbounded water. DVS was measured using a VTI SGA-100 Vapor Sorption Analyzer. Sorption and desorption data was collected over a range from 5% to 95% RH at 10% RH increments under a nitrogen purge. The equilibrium criterion used for analysis was less than 0.0100% weight change in 5 minutes with a maximum equilibrium time of 3 hours. [table]

Data set [4] in a line: stability of the crystals on storage and heating (HPLC, LCMS, NMR, XRPD). The data set is classed as physicochemical. The settings on record: for decomposition on storage (HPLC, LCMS and NMR analysis): 40° C. and 75% relative humidity for 45 days; for physical form by XRPD before and after the stability tests: both samples of the stability tests. Here is the method:
The stability of the collected crystals were tested by storing the crystals at 40° C. and 75% relative humidity for 45 days.

Assay in data set [5]: as above
Type of data set: physicochemical.

[6] abbreviates: suspension in 0.5% HPC / 0.5% Poloxamer F-68.
Where [7] appears, read: listed as Crystalline Edisylate.
Where [8] appears, read: in vivo, po, 10 mg/kg, suspension in 0.5% HPC / 0.5% Poloxamer F-68.
Where [9] appears, read: in vivo, po, 10 mg/kg, suspension in 0.5% HPC / 0.5% Poloxamer F-68, read-out: AUC0-t.
The mark [10] stands for this setting: in vivo, po, 10 mg/kg, suspension in 0.5% HPC / 0.5% Poloxamer F-68, read-out: Cmax.
[11] abbreviates: in vivo, po, 10 mg/kg, read-out: AUC0-t.
Where [12] appears, read: in vivo, po, 10 mg/kg, read-out: Cmax.
Where [13] appears, read: 55° C. in a vacuum oven for 24 h.
The mark [14] stands for this setting: 75° C. for 1 week (open to air).
[15] abbreviates: listed as Crystalline Napadisylate.
Where [16] appears, read: 25° C., listed as Napadisylate Salt of Compound 1 (Form I).
[17] abbreviates: listed as Crystalline Camsylate.
[18] abbreviates: listed as Crystalline Napsylate.
Where [19] appears, read: 25° C., listed as Napsylate Salt of Compound 1 (Form I).

The Cmax is the highest concentration seen after dosing. In data set [1] (setting [6]), `Cc1ccc(NC(=O)[C@H]2CCCN(C(=O)c3c(C)cccc3F)[C@H]2c2ccc(NC3CCCC3)cc2)cc1C(F)(F)F` [Edisylate Salt (Form I), N-cyclopentyl-4-((2R,3S)-1-(2-fluoro-6-methylbenzoyl)-3-((4-methyl-3-(trifluoromethyl)phenyl)carbamoyl)piperidin-2-yl)benzenaminium ethane-1,2-disulfonate] had an AUC0-t of 2839 ng·h/mL, an AUCinf of 3197 ng·h/mL and a Cmax of 435 ng/mL. Also, in data set [2] (setting [7]), the AUC0-t came to 2126 ng·h/mL, the AUCinf was 2162 ng·h/mL and the Cmax is recorded as 525 ng/mL.
A word on the AUC(0-inf): it is the area under the concentration-time curve extrapolated to infinity. Read a low AUC(0-inf) as low exposure. For the compound `Cc1ccc(NC(=O)[C@H]2CCCN(C(=O)c3c(C)cccc3F)[C@H]2c2ccc(NC3CCCC3)cc2)cc1C(F)(F)F.O=S(=O)(O)c1ccccc1` [Besylate Salt (Form I), N-cyclopentyl-4-((2R,3S)-1-(2-fluoro-6-methylbenzoyl)-3-((4-methyl-3-(trifluoromethyl)phenyl)-carbamoyl)piperidin-2-yl)benzenaminium benzenesulfonate], the AUC(0-inf) in data set [1] (setting [8]) came to 2600 ng·h/mL; in data set [2] (in vivo, po, 10 mg/kg), 2220 ng·h/mL. Also, the AUC0-t came to 2510 ng·h/mL in data set [1] (setting [9]) and 2170 ng·h/mL in data set [2] (setting [11]). The Cmax in data set [1] (setting [10]) amounted to 493 ng/mL; in data set [2] (setting [12]), 390 ng/mL. The “DVS weight change from 5% to 95% relative humidity (RH)” value in data set [3] (25° C.) came to 0.73%. For the same compound, in data set [3] (25° C.), the “DVS weight change from about 0% RH to about 75% relative humidity” value is “about 0.5%”. In addition, in data set [3], the “change in XRPD before and after the DVS measurement” value (“change … after the DVS measurement” below) is given as “No change in XRPD”. Further, the “decomposition on storage (HPLC, LCMS and NMR analysis)” value (“decomposition on storage” below) in data set [4] was “did not result in any appreciable decomposition”. Moreover, in data set [4], the “physical form by XRPD before and after the stability tests” value (from here on “physical form”) is “remained the same”. Also, the “decomposition on heating (HPLC, LCMS and NMR analysis)” value (“decomposition on heating” below) in data set [5] (setting [13]) and in data set [5] (setting [14]) was “did not result in any appreciable decomposition” each time.
`Cc1ccc(NC(=O)[C@H]2CCCN(C(=O)c3c(C)cccc3F)[C@H]2c2ccc(NC3CCCC3)cc2)cc1C(F)(F)F` [Napadisylate Salt (Form I), N-cyclopentyl-4-((2R,3S)-1-(2-fluoro-6-methylbenzoyl)-3-((4-methyl-3-(trifluoromethyl)phenyl)-carbamoyl)piperidin-2-yl)benzenaminium naphthalene-1,5-disulfonate]: in data set [1] (setting [6]), the AUC0-t came to 3417 ng·h/mL, the AUCinf came to 3478 ng·h/mL and the Cmax worked out at 718 ng/mL. In addition, in data set [2] (setting [15]), the AUC0-t came out at 5856 ng·h/mL, the AUCinf came out at 7743 ng·h/mL and the Cmax is given as 753 ng/mL. Further, in data set [3] (setting [16]), the “DVS weight change from 5% to 95% relative humidity (RH)” value turned out to be 1.42% and the “DVS weight change from about 0% RH to about 55% relative humidity” value is listed as “about 0.6%”. For the same compound, the “change … after the DVS measurement” value in data set [3] is “No change in XRPD”. In data set [4], the “decomposition on storage” value is “did not result in any appreciable decomposition”; the “physical form” value is on record as “remained the same”. The “decomposition on heating” value in data set [5] (setting [13]) was “did not result in any appreciable decomposition”. The “decomposition on heating” value in data set [5] (setting [14]) is on record as “did not result in any appreciable decomposition”.
Take `Cc1ccc(NC(=O)[C@H]2CCCN(C(=O)c3c(C)cccc3F)[C@H]2c2ccc(NC3CCCC3)cc2)cc1C(F)(F)F.Cc1ccc(S(=O)(=O)O)cc1` [Tosylate Salt (Form I), N-cyclopentyl-4-((2R,3S)-1-(2-fluoro-6-methylbenzoyl)-3-((4-methyl-3-(trifluoromethyl)phenyl)-carbamoyl)piperidin-2-yl)benzenaminium 4-methylbenzenesulfonate]: the AUC(0-inf) turned out to be 4150 ng·h/mL in data set [1] (setting [8]) and 3370 ng·h/mL in data set [2] (in vivo, po, 10 mg/kg). In addition, the results for the AUC0-t in data set [1] (setting [9]) and in data set [2] (setting [11]) were 4040 ng·h/mL and 3310 ng·h/mL, respectively. Moreover, the figures for the Cmax in data set [1] (setting [10]) and in data set [2] (setting [12]) were 591 ng/mL and 649 ng/mL, respectively. In data set [3] (25° C.), the “DVS weight change from 5% to 95% relative humidity (RH)” value worked out at 0.83%. Moreover, in data set [3] (25° C.), the “DVS weight change from about 0% RH to about 75% relative humidity” value is recorded as “about 0.58%”. Further, the “change … after the DVS measurement” value in data set [3] is given as “No change in XRPD”. Besides, the “decomposition on storage” value in data set [4] was “did not result in any appreciable decomposition”. The “physical form” value in data set [4] was “remained the same”. Moreover, the “decomposition on heating” value in data set [5] (setting [13]) and in data set [5] (setting [14]) was “did not result in any appreciable decomposition” each time.
In data set [1] (setting [6]), `Cc1ccc(NC(=O)[C@H]2CCCN(C(=O)c3c(C)cccc3F)[C@H]2c2ccc(NC3CCCC3)cc2)cc1C(F)(F)F` [Camsylate Salt (Form I), N-cyclopentyl-4-((2R,3S)-1-(2-fluoro-6-methylbenzoyl)-3-((4-methyl-3-(trifluoromethyl)phenyl)-carbamoyl)piperidin-2-yl)benzenaminium (1S)-(+)-10-camphorsulfonate] came in with an AUC0-t of 3870 ng·h/mL, an AUCinf of 3922 ng·h/mL and a Cmax of 738 ng/mL. In data set [2] (setting [17]), this compound came in with an AUC0-t of 2877 ng·h/mL, an AUCinf of 3005 ng·h/mL and a Cmax of 553 ng/mL. The “DVS weight change from 5% to 95% relative humidity (RH)” value in data set [3] (25° C., listed as Camsylate Salt of Compound 1 (Form I)) came out at 0.96%. The “DVS weight change from about 0% RH to about 65% relative humidity” value in data set [3] (25° C., about 0% to about 65% RH) is given as “about 0.35%”. Besides, the “change … after the DVS measurement” value in data set [3] is given as “No change in XRPD”. In data set [4], the “decomposition on storage” value was “did not result in any appreciable decomposition”; the “physical form” value was “remained the same”. For the same compound, the “decomposition on heating” value in data set [5] (setting [13]) is on record as “did not result in any appreciable decomposition”. In addition, in data set [5] (setting [14]), the “decomposition on heating” value is on record as “did not result in any appreciable decomposition”.
In data set [1] (setting [6]), `Cc1ccc(NC(=O)[C@H]2CCCN(C(=O)c3c(C)cccc3F)[C@H]2c2ccc(NC3CCCC3)cc2)cc1C(F)(F)F` [Napsylate Salt (Form I), N-cyclopentyl-4-((2R,3S)-1-(2-fluoro-6-methylbenzoyl)-3-((4-methyl-3-(trifluoromethyl)phenyl)-carbamoyl)piperidin-2-yl)benzenaminium naphthalene-2-sulfonate] registered an AUC0-t of 4876 ng·h/mL, an AUCinf of 5057 ng·h/mL and a Cmax of 778 ng/mL. In data set [2] (setting [18]), this compound displayed an AUC0-t of 4277 ng·h/mL, an AUCinf of 4589 ng·h/mL and a Cmax of 601 ng/mL. In addition, in data set [3] (setting [19]), the “DVS weight change from 5% to 95% relative humidity (RH)” value is listed as 0.65% and the “DVS weight change from about 0% RH to about 55% relative humidity” value is on record as “about 0.2%”. Moreover, the “change … after the DVS measurement” value in data set [3] is reported as “No change in XRPD”. For the same compound, in data set [4], the “decomposition on storage” value is reported as “did not result in any appreciable decomposition”; the “physical form” value is on record as “remained the same”. For the same compound, the “decomposition on heating” value in data set [5] (setting [13]) is on record as “did not result in any appreciable decomposition”. Further, the “decomposition on heating” value in data set [5] (setting [14]) is “did not result in any appreciable decomposition”.
Consider `Cc1ccc(NC(=O)[C@H]2CCCN(C(=O)c3c(C)cccc3F)[C@H]2c2ccc(NC3CCCC3)cc2)cc1C(F)(F)F` [Crystalline Free Base, (2R,3S)-2-(4-(cyclopentylamino)phenyl)-1-(2-fluoro-6-methylbenzoyl)-N-(4-methyl-3-(trifluoromethyl)phenyl)piperidine-3-carboxamide], for which, in data set [2], the AUC0-t was 1361 ng·h/mL, the AUCinf turned out to be 1377 ng·h/mL and the Cmax is 168 ng/mL.
